Experimental data as given in the supplement of paper PMC10307832.

Tests used:
Experiment in all cases: relative viability (nuclei count vs DMSO), 5 days (fraction); higher = more cells survive
AGI-6780 + Bortezomib = compound: O=C(Nc1cccc(C(F)(F)F)c1)Nc1cc(S(=O)(=O)NC2CC2)ccc1-c1ccsc1 [AGI-6780] + CC(C)C[C@H](NC(=O)[C@H](Cc1ccccc1)NC(=O)c1cnccn1)B(O)O [Bortezomib] (partner 0.002 µM)
Summary of the method: (§1)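 Lung cancer cell lines were seeded in 1536-well plates and dosed by pin tool the next day, with either a single drug or a fixed anchor-drug dose combined with five library-drug doses (not always all listed) spaced in √10 steps. Five days later, one step fixed the cells and stained their nuclei (final 0.05% Triton X-100, 1% formaldehyde, 1 ug/ml Hoechst), and nuclei were counted on 4× images. Relative viability is the nuclei count in treated wells divided by the count in vehicle wells, and each value is the median of duplicate plates.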

AGI-6780 + Lapatinib = compound: O=C(Nc1cccc(C(F)(F)F)c1)Nc1cc(S(=O)(=O)NC2CC2)ccc1-c1ccsc1 [AGI-6780] + CS(=O)(=O)CCNCc1ccc(-c2ccc3ncnc(Nc4ccc(OCc5cccc(F)c5)c(Cl)c4)c3c2)o1 [Lapatinib] (partner 2 µM)
Summary of the method: as §1

AGI-6780 + AZD7762 = compound: O=C(Nc1cccc(C(F)(F)F)c1)Nc1cc(S(=O)(=O)NC2CC2)ccc1-c1ccsc1 [AGI-6780] + NC(=O)Nc1cc(-c2cccc(F)c2)sc1C(=O)N[C@H]1CCCNC1 [AZD7762] (partner 0.2 µM)
Summary of the method: as §1

AGI-6780 + Decitabine = compound: O=C(Nc1cccc(C(F)(F)F)c1)Nc1cc(S(=O)(=O)NC2CC2)ccc1-c1ccsc1 [AGI-6780] + Nc1ncn([C@H]2C[C@H](O)[C@@H](CO)O2)c(=O)n1 [Decitabine] (partner 2 µM)
Summary of the method: as §1

| Cell Line | relative viability (AGI-6780 + Bortezomib; first compound 0.08 µM) | relative viability (AGI-6780 + Bortezomib; first compound 0.253 µM) | relative viability (AGI-6780 + Bortezomib; first compound 0.8 µM) | relative viability (AGI-6780 + Bortezomib; first compound 2.53 µM) | relative viability (AGI-6780 + Bortezomib; first compound 8 µM) | relative viability (AGI-6780 + Lapatinib; first compound 0.08 µM) | relative viability (AGI-6780 + Lapatinib; first compound 0.253 µM) | relative viability (AGI-6780 + Lapatinib; first compound 0.8 µM) | relative viability (AGI-6780 + Lapatinib; first compound 2.53 µM) | relative viability (AGI-6780 + Lapatinib; first compound 8 µM) | relative viability (AGI-6780 + AZD7762; first compound 0.08 µM) | relative viability (AGI-6780 + AZD7762; first compound 0.253 µM) | relative viability (AGI-6780 + AZD7762; first compound 0.8 µM) | relative viability (AGI-6780 + AZD7762; first compound 2.53 µM) | relative viability (AGI-6780 + AZD7762; first compound 8 µM) | relative viability (AGI-6780 + Decitabine; first compound 0.08 µM) | relative viability (AGI-6780 + Decitabine; first compound 0.253 µM) | relative viability (AGI-6780 + Decitabine; first compound 0.8 µM) | relative viability (AGI-6780 + Decitabine; first compound 2.53 µM) | relative viability (AGI-6780 + Decitabine; first compound 8 µM) |
| --- | --- | --- | --- | --- | --- | --- | --- | --- | --- | --- | --- | --- | --- | --- | --- | --- | --- | --- | --- | --- |
| IA-LM | 0.91 | 0.876 | 0.811 | 0.977 | 0.829 | 1.01 | 0.845 | 0.928 | 0.83 | 0.896 |  |  |  |  |  |  |  |  |  |  |
| LCLC-103H | 1.11 | 1.17 | 1.02 | 0.939 | 1.18 |  |  |  |  |  | 0.716 | 0.812 | 0.712 | 0.647 | 0.792 | 0.768 | 0.824 | 0.714 | 0.726 | 0.753 |
| LK-2 |  |  |  |  |  | 0.867 | 0.951 | 1.14 |  | 0.958 | 0.374 | 0.412 | 0.63 |  | 0.501 | 0.282 | 0.402 | 0.322 |  | 0.477 |
| NCI-H358 |  |  |  |  |  | 0.517 | 0.6 | 0.473 | 0.375 | 0.417 | 0.678 | 0.504 | 0.648 | 0.501 | 0.475 | 0.219 | 0.242 | 0.208 | 0.184 | 0.194 |
| NCI-H441 | 0.514 | 0.601 | 0.831 | 0.45 | 0.387 |  |  |  |  |  | 1.33 | 1.35 | 1.43 | 1.2 | 1.39 | 0.221 | 0.28 | 0.25 | 0.204 | 0.241 |
| NCI-H520 | 0.577 | 0.661 | 0.63 | 0.697 | 0.779 | 0.913 | 0.983 | 0.981 | 0.775 | 0.968 |  |  |  |  |  | 0.599 | 0.482 | 0.434 | 0.392 | 0.467 |
| NCI-H522 |  |  |  |  |  |  |  |  |  |  | 0.821 | 0.907 | 0.848 |  | 0.78 | 0.612 | 0.583 | 0.722 |  | 0.588 |
| NCI-H661 | 0.78 | 0.933 | 0.758 | 0.694 | 0.771 | 0.549 | 0.518 | 0.616 | 0.474 | 0.516 |  |  |  |  |  | 0.589 | 0.567 | 0.612 | 0.502 | 0.558 |
| NCI-H1299 | 1.06 | 1.03 | 0.944 | 1.02 | 1.03 | 1.01 | 0.978 | 0.925 | 0.929 | 0.968 |  |  |  |  |  |  |  |  |  |  |
| NCI-H1395 |  |  |  |  |  | 0.941 | 1.06 | 1.01 |  | 1.04 | 0.366 | 0.4 | 0.412 | 0.428 | 0.387 | 0.738 | 0.789 | 0.747 | 0.676 | 0.742 |
| NCI-H1563 | 1 | 0.918 | 0.843 | 0.75 | 0.824 | 1.03 | 0.924 | 0.987 | 0.881 | 0.903 |  |  |  |  |  |  |  |  |  |  |
| NCI-H1648 |  |  |  |  |  |  |  |  |  |  | 0.676 | 0.846 | 0.89 | 0.769 | 0.81 | 0.551 | 0.418 | 0.506 | 0.459 | 0.627 |
| NCI-H1650 | 0.181 | 0.196 | 0.216 | 0.206 | 0.183 | 0.739 | 0.777 | 1.16 | 0.789 | 0.874 |  |  |  |  |  | 0.435 | 0.485 | 0.381 | 0.305 | 0.387 |
| NCI-H1703 | 0.473 | 0.315 | 0.509 | 0.364 | 0.375 | 1.11 | 0.87 | 1.82 | 1.13 | 0.93 | 0.14 | 0.139 | 0.0936 | 0.112 | 0.133 |  |  |  |  |  |
| NCI-H1793 |  |  |  |  |  | 0.819 | 0.811 | 0.779 | 0.491 | 0.723 | 0.747 | 0.517 | 0.703 | 0.36 | 0.409 | 0.519 | 0.539 | 0.415 | 0.342 | 0.549 |
| NCI-H1944 |  |  |  |  |  | 0.928 | 0.861 | 0.784 | 0.544 | 0.92 | 0.538 | 0.516 | 0.515 |  | 0.55 | 0.448 | 0.445 | 0.399 |  | 0.425 |
| NCI-H2009 | 1.03 | 1.04 | 0.969 | 1.07 | 1.12 | 0.952 | 0.889 | 0.976 | 0.917 | 0.959 |  |  |  |  |  | 0.396 | 0.365 | 0.428 | 0.322 | 0.382 |
| NCI-H2023 | 0.994 | 1.1 | 1.09 | 0.92 | 1.06 | 0.902 | 0.992 | 1 | 0.556 | 0.906 |  |  |  |  |  | 0.208 | 0.238 | 0.256 | 0.233 | 0.239 |
| NCI-H2170 |  |  |  |  |  | 0.291 | 0.281 | 0.272 |  | 0.257 | 0.803 | 0.904 | 0.987 |  | 0.827 | 0.469 | 0.495 | 0.477 |  | 0.459 |
| NCI-H2228 | 1.11 | 1.07 | 0.811 | 0.896 | 0.886 | 1.2 | 1.05 | 0.825 | 0.771 | 1.27 |  |  |  |  |  |  |  |  |  |  |
| NCI-H2342 |  |  |  |  |  |  |  |  |  |  | 0.47 | 0.667 | 0.612 | 0.499 | 0.733 | 0.727 | 0.733 | 0.732 | 0.65 | 0.99 |
| SK-LU-1 | 1.25 | 1.45 | 0.965 | 1.12 | 1.4 | 0.928 | 0.857 | 0.683 | 0.863 | 1.14 |  |  |  |  |  | 0.73 | 0.63 | 0.567 | 0.583 | 0.572 |
| SK-MES-1 |  |  |  |  |  | 0.482 | 0.524 | 0.441 | 0.407 | 0.427 |  |  |  |  |  | 0.364 | 0.382 | 0.462 | 0.294 | 0.377 |
| SW 1573 | 1.01 | 1.1 | 0.915 | 0.69 | 0.879 | 1.3 | 1.29 | 1.08 | 0.957 | 1.06 |  |  |  |  |  | 0.6 | 0.449 | 0.65 | 0.417 | 0.493 |
| UMC-11 | 0.671 | 0.712 | 1.06 |  | 1.04 | 1.03 | 0.92 | 1.09 |  | 1.16 |  |  |  |  |  | 0.394 | 0.335 | 0.7 |  | 0.678 |
